Patent publication US10399968B2, “Hydroxyalkyl thiadiazole derivatives” (Daiichi Sankyo Company, Limited, priority 2015, dated 2019)
Converted amounts (≈) assume the structure as drawn. Where two headings read alike, the source gives them in different places.

Legend:
[1] = Change of weight when relative humidity varied stepwise; assay type: physicochemical
Protocol: The Form I thus obtained was characterized by i) the diffraction pattern obtained from powder X-ray diffraction analysis (CuK, λ=1.54 Å, scan rate=20°/min) (FIG. 2) and ii) the thermogravimetric analysis pattern (TG/DTA pattern) obtained from measurement of sample (3 mg) at heating rate of about 10° C./minute (FIG. 3). […] Further, the pattern of change of weight of the sample was shown (FIG. 4), which was observed when relative humidity was varied stepwise.
The thermogravimetric analysis pattern (TG/DTA pattern) obtained from measurement of sample (3 mg) at heating rate of about 10° C./minute is as depicted in FIG. 6. […] Further, the pattern of change of weight of the sample was shown in FIG. 7, which was observed when relative humidity was varied stepwise.

Staphylococcus aureus = assay: Neutropenic mouse thigh or calf muscle infection model; assay type: in vivo; settings: neutropenic mice, compared with linezolid
Excerpt: After culture in broth medium (i) suitable diluent of a bacterial suspension of the Staphylococcus aureus strain, or (ii) equivalent mixture of suitable diluent of a bacterial suspension of the Enterococcus faecium strain and a 10% mucin suspension were used as the inoculum. The bacterial suspension was inoculated under anesthesia with a ketamine-xylazine mixture into the thigh or calf muscle of Swiss albino mice or ICR mice (4- to 6-week-old) compromised by the cyclophosphamide administration. The drug was administered to the mice 1 to 8 times at an interval of 3 to 24 hours. The number of bacteria in the thigh or calf muscle was counted for the non-treated group immediately before initial administration of the drug (pre-control), for the non-treated group (post-control) and for the drug-administered group on the next day of administration of the drug and infection. A change in the number of bacteria in the thigh or calf muscle was used as an index of therapeutic effect.

S. aureus ATCC 29213 = assay: Susceptibility of bacteria, broth microdilution MIC; assay type: cell-based; settings: Staphylococcus aureus, ATCC29213
Protocol: The antibacterial activity of the compounds of the present invention was tested by the broth microdilution method. The assay was carried out according to the CLSI guidelines for managing the procedures of susceptibility tests: “M7-A7 Methods for Dilution Antimicrobial Susceptibility Tests for Bacteria That Grow Aerobically; Approved Standard-Seventh Edition (2006)”. Test strains were grown on appropriate agar plates overnight. A broth containing the test compound diluted serially 2-fold and diluents were dispensed at 100 μL to each well of a 96-well microplate. As a growth control, a well with a broth not containing the test compound was also prepared. Colonies grown on the plates were suspended in saline, adjusted to 0.5 McFarland (OD625=0.08 to 0.10) using a colorimeter, and then diluted 10-fold with saline. The bacterial suspension was inoculated at 4 μL into each well of the microplate using a bacterial suspension inoculation apparatus. The inoculated microplate was incubated at 35° C. overnight (about 20 hours). The growth condition was observed by the naked eye, and the minimum concentration to inhibit bacterial proliferation was defined as a minimum inhibitory concentration (MIC). The MICs of compounds disclosed herein for E. faecium, Streptococcus pneumoniae and Haemophilus influenzae are shown in Table 2, while for S. aureus in Table 3.

[2] = test system: Clostridium difficile ATCC 43255; assay: Susceptibility of Clostridium difficile, agar dilution MIC; assay type: cell-based; settings: Clostridioides difficile, ATCC43255, anaerobic
Protocol: The antibacterial activity of the compounds of the present invention against Clostridium difficile clinical isolates was tested by the agar dilution method. The assay was carried out according to the CLSI guidelines for managing the procedures of susceptibility tests “M11-A8, Methods for Antimicrobial Susceptibility Testing of Anaerobic Bacteria; Approved Standard-Eighth Edition. CLSI document (2012)”.
The test strains were spread on supplemented Brucella agar (SBA) plates and grown at 36° C. under anaerobic condition for 42 to 48 hours. The test compound dilutions were prepared with Brucella broth and SBA plates containing dilution of test compound were prepared. As an anaerobic growth control, plates not containing the test compound were also prepared. Colonies grown on plates were suspended with Brucella broth to adjust the turbidity to 0.5 McFarland using a densitometer. Suspension (1-2 μL) of the test strains was inoculated onto each agar surface by using a bacterial suspension inoculation apparatus. After anaerobic incubation at 36° C. for 42 to 48 hours, absence and presence of growth of each strain were examined with unaided eye. The MIC was determined at which a marked reduction occurs in the appearance of growth on the test plate as compared to that of growth on the anaerobic control plates.

[3] = Solubility in water (JP1 / JP2 fluids); assay type: physicochemical; settings: thermodynamic from solid
Protocol: A 10 mmol/L solution of the test compound was prepared in DMSO and dispensed 100 μL of 10 mmol/L DMSO stock solutions into labeled glass tubes in duplicate, one for Japanese Pharmacopeia First Fluid (JP1) and second for Japanese Pharmacopeia Second Fluid (JP2). After evaporation of DMSO from each tube, 500 μL of JP1 and JP2 fluid were added in each tube, respectively. These tubes were sonicated for 1 minute and placed on shaker for 30 minutes with an interval of 30 seconds at every 5 minute. Tubes were placed in dark at room temperature for 1 hour and solution was filtered through membrane filter. The filtrate was diluted 2-fold and 10-fold. The resulting test solutions was analyzed and quantified against the standards using UPLC (standard preparation—10 mmol/L solution in DMSO is serially diluted with 50% aqueous acetonitrile solution to prepare 2 solutions; 100 μmol/L standard solution and 5 μmol/L standard solutions).

[4] = test system: Haemophilus influenzae ATCC 49247; assay: Susceptibility of bacteria, broth microdilution MIC; assay type: cell-based; settings: ATCC49247
Protocol: (§1) The antibacterial activity of the compounds of the present invention was tested by the broth microdilution method. The assay was carried out according to the CLSI guidelines for managing the procedures of susceptibility tests: “M7-A7 Methods for Dilution Antimicrobial Susceptibility Tests for Bacteria That Grow Aerobically; Approved Standard-Seventh Edition (2006)”. Test strains were grown on appropriate agar plates overnight. A broth containing the test compound diluted serially 2-fold and diluents were dispensed at 100 μL to each well of a 96-well microplate. As a growth control, a well with a broth not containing the test compound was also prepared. Colonies grown on the plates were suspended in saline, adjusted to 0.5 McFarland (OD625=0.08 to 0.10) using a colorimeter, and then diluted 10-fold with saline. The bacterial suspension was inoculated at 4 μL into each well of the microplate using a bacterial suspension inoculation apparatus. The inoculated microplate was incubated at 35° C. overnight (about 20 hours). The growth condition was observed by the naked eye, and the minimum concentration to inhibit bacterial proliferation was defined as a minimum inhibitory concentration (MIC).

[5] = test system: Streptococcus pneumoniae ATCC 49619; assay: as above; assay type: cell-based; settings: ATCC49619
Protocol: as §1

E. faecium ATCC 29212 = assay: as above; assay type: cell-based; settings: Enterococcus faecium, ATCC29212
Protocol: as §1

[6] = target: Clostridium difficile DNA gyrase (Clostridioides difficile, UniProt Q18C89); assay: DNA supercoiling inhibition assay; assay type: biochemical; settings: supercoiling of relaxed pBR322 DNA, 60 minutes at 37° C.
Protocol: DNA supercoiling assays (30 μL reaction) were performed in a buffer containing 15 mM Tris-HCl pH 7.5, 13% glycerol, 6 mM MgCl2, 0.1 mg/mL BSA, 70 mM KCl, 1 mM dithioerythritol, 400 ng of DNA substrate (relaxed pBR322 DNA) and different concentrations of test compounds and/or standards. The dilutions of test compounds and standards were prepared in 20% dimethylsulfoxide (DMSO) and added 3 μL/reaction. The reaction was started by adding 2 μL amounts of Clostridium difficile DNA gyrase into the reaction mixtures and reactions were allowed to proceed for 60 minutes at 37° C. A reaction was carried out by adding 3 μL of 20% DMSO instead of test compound as full reaction control, and another reaction was carried out by adding sterile water instead of the enzyme as no reaction control.
Reactions were stopped by the addition of 5 μL of 6×loading dye and were analyzed by electrophoresis through 1.0% agarose gels with 1×TAE running buffer. Gels were run at 60 V for 3 hours, stained with EtBr, and visualized by Gel Doc system (BioRad). Intensity of the supercoiled DNA bands was quantified, and the IC50 of Clostridium difficile DNA gyrase was calculated using Graph Pad Prism.

[7] = Oral bioavailability (BA) in monkeys; assay type: in vivo, Macaca fascicularis; settings: male, cynomolgus monkey, blood, 1 mg/kg oral vs jugular vein
Protocol: To male Macaca fascicularis (3 or 4 year-old) fasted overnight, a solution of the test compound Captisol® was administered into the jugular vein (3 animals) and a solution of Lutrol® F68 was orally administered (3 animals). The dose of both test compounds was 1 mg/kg body weight of the monkey. The amount of Captisol® used was 0.18 mg/kg body weight of the monkey. The amount of Lutrol® F68 used was 0.02 mg/kg body weight of the monkey. The BA value was calculated by the formula below using the integration value (AUCiv(0-∞)) of the blood concentration extrapolated from time 0 to infinity after administration of both test compounds. BA(%)=[[(AUCpo(0-∞))/(dose po)]/[(AUCiv(0-∞))/(dose iv)]]×100 The greater a BA value of the compound shown, the higher the oral bioavailability is.

[8] = Oral bioavailability (BA) in rats; assay type: in vivo; settings: male, SD, blood; Rat, 2 mg/kg oral vs jugular vein
Protocol: To SD male rats (7 week-old) fasted overnight, a solution of the test compound Captisol® was administered into the jugular vein (3 animals) and a solution of Lutrol® F68 was administered orally (3 animals). The dose of the test compounds was 2 mg/kg body weight of the rat for both administration routes. The amount of Captisol® used was 0.36 mg/kg body weight of the rat. The amount of Lutrol® F68 used was 0.02 mg/kg body weight of the rat. The BA value was calculated by the formula below using the integration value (AUCiv(0-∞)) of the blood concentration extrapolated from time 0 to infinity after administration of both test compounds. The greater a BA value of the compound shown, the higher the oral bioavailability is.

Chain of Clostridium difficile DNA gyrase (Q18C90 entry or part of it): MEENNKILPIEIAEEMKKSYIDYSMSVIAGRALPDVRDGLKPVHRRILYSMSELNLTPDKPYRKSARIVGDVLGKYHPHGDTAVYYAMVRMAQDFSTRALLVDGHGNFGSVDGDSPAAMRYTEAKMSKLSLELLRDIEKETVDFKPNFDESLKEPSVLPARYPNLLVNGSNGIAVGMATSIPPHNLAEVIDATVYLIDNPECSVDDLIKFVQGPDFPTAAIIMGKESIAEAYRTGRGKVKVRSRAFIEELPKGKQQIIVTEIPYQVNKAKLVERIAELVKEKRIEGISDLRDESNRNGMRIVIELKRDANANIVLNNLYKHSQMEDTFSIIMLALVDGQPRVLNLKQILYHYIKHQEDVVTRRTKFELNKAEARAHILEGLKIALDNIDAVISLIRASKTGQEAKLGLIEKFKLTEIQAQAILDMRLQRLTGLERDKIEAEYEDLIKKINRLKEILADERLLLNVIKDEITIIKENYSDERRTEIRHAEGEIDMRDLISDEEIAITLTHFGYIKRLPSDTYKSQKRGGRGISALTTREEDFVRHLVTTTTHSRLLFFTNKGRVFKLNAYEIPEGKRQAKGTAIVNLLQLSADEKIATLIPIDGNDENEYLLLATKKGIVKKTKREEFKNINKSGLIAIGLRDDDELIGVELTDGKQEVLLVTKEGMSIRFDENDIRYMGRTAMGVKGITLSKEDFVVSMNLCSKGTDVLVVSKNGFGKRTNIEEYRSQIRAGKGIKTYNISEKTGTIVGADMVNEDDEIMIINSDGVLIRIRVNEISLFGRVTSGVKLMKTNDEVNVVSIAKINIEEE
Chain of Clostridium difficile DNA gyrase (Q18C89 entry or part of it): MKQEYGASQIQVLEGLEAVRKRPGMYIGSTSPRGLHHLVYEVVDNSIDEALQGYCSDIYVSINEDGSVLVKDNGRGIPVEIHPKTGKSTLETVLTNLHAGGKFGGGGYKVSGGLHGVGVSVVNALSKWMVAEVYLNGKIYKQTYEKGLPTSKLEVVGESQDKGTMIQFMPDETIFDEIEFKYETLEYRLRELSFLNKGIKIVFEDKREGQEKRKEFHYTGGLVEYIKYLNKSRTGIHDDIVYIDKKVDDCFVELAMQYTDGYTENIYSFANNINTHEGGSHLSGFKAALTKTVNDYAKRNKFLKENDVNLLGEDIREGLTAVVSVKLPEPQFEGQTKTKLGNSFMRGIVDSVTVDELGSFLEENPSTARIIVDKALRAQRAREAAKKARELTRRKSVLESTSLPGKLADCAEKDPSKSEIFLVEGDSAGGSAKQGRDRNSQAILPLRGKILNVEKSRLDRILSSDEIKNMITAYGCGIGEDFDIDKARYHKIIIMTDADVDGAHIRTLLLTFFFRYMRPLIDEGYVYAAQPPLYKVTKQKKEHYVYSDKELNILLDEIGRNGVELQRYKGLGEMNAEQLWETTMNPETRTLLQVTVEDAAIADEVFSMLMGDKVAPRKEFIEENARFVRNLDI

In the case of `CCc1[nH]c(C(=O)N[C@@H]2CCN(c3nnc(C(C)(C)O)s3)C[C@@H]2OC)nc1Cl` [Form I, 4-chloro-5-ethyl-N-{(3S,4R)-1-[5-(2-hydroxypropan-2-yl)-1,3,4-thiadiazol-2-yl]-3-methoxypiperidin-4-yl}-1H-imidazole-2-carboxamide], the change of weight [1] is reported as ≤ 0.3%.
For `CCc1[nH]c(C(=O)N[C@@H]2CCN(c3nnc([C@@H](C)O)s3)C[C@@H]2OC)nc1Cl` (single isomer, unassigned) [Compound No. 4], the “therapeutic effect against Staphylococcus aureus (number of bacteria in thigh or calf muscle)” value (Staphylococcus aureus) was “equivalent to or higher than linezolid”, the MIC (S. aureus ATCC 29213) was 0.5 µg/mL (≈ 1.21 µM) and the MIC [2] was 0.06 µg/mL (≈ 0.145 µM). It also gave a solubility at 30 min ([3]; Japanese Pharmacopeia First Fluid (JP1), pH 1.2, simulated gastric fluid, read-out: Solubility JP1) of 612 µg/mL (≈ 1470 µM), a solubility at 30 min ([3]; Japanese Pharmacopeia Second Fluid (JP2), pH 6.8, aqueous buffer, read-out: Solubility JP2) of 304 µg/mL (≈ 733 µM) and an MIC [4] of 1 µg/mL (≈ 2.41 µM). The MIC [5] was 0.25 µg/mL (≈ 0.603 µM), the MIC (E. faecium ATCC 29212) was 0.25 µg/mL (≈ 0.603 µM) and the IC50 [6] was 14.5 nM. The bioavailability [7] was 92%.
With `CCc1[nH]c(C(=O)N[C@@H]2CCN(c3nnc(C(C)O)s3)C[C@@H]2OC)nc1Cl` (mixture of isomers) [Compound No. 3, 4-Chloro-5-ethyl-N-{(3S,4R)-1-[5-(1-hydroxyethyl)-1,3,4-thiadiazol-2-yl]-3-methoxypiperidin-4-yl}-1H-imidazole-2-carboxamide] the MIC (S. aureus ATCC 29213) was 0.5 µg/mL, the MIC [2] was 0.125 µg/mL and the bioavailability [8] was 51%. It also gave a bioavailability [7] of 100%.
With `CCc1[nH]c(C(=O)N[C@@H]2CCN(c3nnc(C(C)(C)O)s3)C[C@@H]2OC)nc1Cl` [Form II, 4-chloro-5-ethyl-N-{(3S,4R)-1-[5-(2-hydroxypropan-2-yl)-1,3,4-thiadiazol-2-yl]-3-methoxypiperidin-4-yl}-1H-imidazole-2-carboxamide] the “weight change due absorption or desorption of moisture” value [1] was “no weight change”.
